{"source": "paper PMC4129108", "about": "“The natural triterpene 3β,6β,16β-trihydroxy-lup-20(29)-ene obtained from the flowers of Combretum leprosum induces apoptosis in MCF-7 breast cancer cells” (BMC Complementary and Alternative Medicine, 2014)", "key": {"[1]": {"tested_on": "S. cerevisiae EG133 (sod1Δsod2Δ)", "assay": "Yeast survival assay, EG133 (sod1Δsod2Δ)", "type": "cell-based, Saccharomyces cerevisiae", "conditions": "positive control H2O2 5 mM, 1 h in PBS", "description": "(§1) Media, solutions and buffers were prepared according to Burke et al.. YPD medium (0.5% yeast extract, 2% peptone, 2% glucose) was used for routine growth. Synthetic medium SC (0.67% yeast nitrogen base, 0.1% ammonium sulfate, 2% glucose) supplemented with the appropriate amino acids and bases ([…]) was used for the detection of mutations.\n(§2) Stationary phase (STAT) cultures were obtained by inoculation of a single colony into liquid YPD. We chose to work in the stationary phase of growth because this resembles most cells of multicellular organisms in important aspects: (i) most energy comes from mitochondrial respiration; (ii) the cells have left the active cell cycle and have entered the Go phase; and (iii) damage accumulates over time.\n(§3) STAT cells (1 × 10^8 cells/mL) were exposed to TTHL (10–500 μg/mL) and incubated under growth conditions for 1 h in PBS at 30°C. Cells were then washed and treated with H2O2 (5 mM) in PBS for another hour. Suitable aliquots were plated in triplicate on solid YPD (2–3 days, 30°C) and colony-forming units were counted. Sensitivity was expressed as a percentage of survival in relation to the negative control (solvent)."}, "[2]": {"tested_on": "S. cerevisiae EG103 (SOD-WT)", "assay": "Yeast survival assay, EG103 (SOD-WT)", "type": "cell-based, Saccharomyces cerevisiae", "conditions": "positive control H2O2 5 mM, 1 h in PBS", "description": "as §1, §2, §3"}, "[3]": {"tested_on": "S. cerevisiae EG118 (sod1Δ)", "assay": "Yeast survival assay, EG118 (sod1Δ)", "type": "cell-based, Saccharomyces cerevisiae", "conditions": "positive control H2O2 5 mM, 1 h in PBS", "description": "as §1, §2, §3"}, "[4]": {"tested_on": "S. cerevisiae EG110 (sod2Δ)", "assay": "Yeast survival assay, EG110 (sod2Δ)", "type": "cell-based, Saccharomyces cerevisiae", "conditions": "positive control H2O2 5 mM, 1 h in PBS", "description": "as §1, §2, §3"}, "HepG2 (hepatoma)": {"tested_on": "HepG2 (hepatoma)", "assay": "XTT cell viability assay, HepG2", "type": "cell-based, human", "conditions": "Homo sapiens; HepG2, 24 h treatment, XTT", "description": "(§4) The human cell lines MCF-7 (breast adenocarcinoma), HepG2 (hepatoma), T24 (bladder cancer), CACO-2 (colorectal adenocarcinoma) and MRC5 (lung normal fibroblast) were obtained from the Rio de Janeiro Cell Bank (Rio de Janeiro, RJ, Brazil). The HCT116 cell (colorectal carcinoma), and HT29 cell (colorectal adenocarcinoma) were kindly provided by Dr. Annette K. Larsen (Institut National de la Santé et de la Recherche Médicale - INSERM, Paris, França). All cell lines except MCF-7 were grown in DMEM supplemented with 10% or 20% (for CACO-2) FBS, 100 units.mL^-1 penicillin and 100 μg.mL^-1 streptomycin at 37°C in a humidified atmosphere of 5% CO2. MCF-7 cells were maintained in RPMI-1640 supplemented with 20% FBS at the same conditions described above.\n(§5) The cytotoxic potential of the TTHL was evaluated by the XTT assay in human tumor cell lines as well as in MRC5 normal fibroblasts. Cells (1 × 10^4 cells) were seeded on 96-well plates in growth medium and incubated overnight. Afterwards, TTHL (0.5, 1.0, 2.5, 5.0, and 10 μg/mL) was added to each well and incubated for 24, 48, 72, and 120 h. Mitoxantrone, a cytostatic anthracenedione that intercalates in DNA and increases the incidence of double-strand breaks by stabilizing the cleavable complex of topoisomerase II and DNA, was used as positive control. At the end of each treatment, cell viability was assessed according to the manufacturer’s instructions. Briefly, after discarding the medium, 1 mL of XTT labeling mixture was added to the cells and incubated for 2 h at 37°C. Absorbance was measured with a SpectraMax reader (Bio-Rad, USA) at a test wavelength of 492 nm (A492) and a reference wavelength of 690 nm (A690). The final result corresponds to A492-A690. The absorbance of negative control cells was set as 100% viability, and the values for treated cells were calculated as a percentage of the control.\n(§6) The IC20, IC50, and IC80 values and their 95% confidence intervals (CI 95%) were obtained by nonlinear regression using GraphPad Prism v5 program (Intuitive Software for Science, San Diego, CA, USA). Selective index (SI) was calculated by IC50 in MRC5 cells/IC50 in tumoral cells. All experiments were independently repeated at least three times, with triplicate samples for each treatment. Results are expressed as means ± standard deviation (SD). Data were analyzed by one-way analysis of variance (ANOVA), and means were compared using Tukey test, with P ≤ 0.05 considered as statistically significant."}, "tumor cell lines": {"tested_on": "tumor cell lines", "assay": "XTT cell viability assay, panel of tumor cell lines", "type": "cell-based", "conditions": "Homo sapiens, read-out: IC50 values in tumor cell lines (range over the panel)", "description": "as §4\nThe cytotoxic potential of the TTHL was evaluated by the XTT assay in human tumor cell lines as well as in MRC5 normal fibroblasts. Cells (1 × 10^4 cells) were seeded on 96-well plates in growth medium and incubated overnight. […] At the end of each treatment, cell viability was assessed according to the manufacturer’s instructions. […] Absorbance was measured with a SpectraMax reader (Bio-Rad, USA) at a test wavelength of 492 nm (A492) and a reference wavelength of 690 nm (A690). […] The absorbance of negative control cells was set as 100% viability, and the values for treated cells were calculated as a percentage of the control. […]"}, "[5]": {"tested_on": "MCF-7 (breast adenocarcinoma)", "assay": "XTT cell viability assay, MCF-7", "type": "cell-based, human", "conditions": "Homo sapiens, MCF7; MCF-7, 24 h treatment, XTT", "description": "as §4, §5, §6"}, "T24 (bladder cancer)": {"tested_on": "T24 (bladder cancer)", "assay": "XTT cell viability assay, T24", "type": "cell-based, human", "conditions": "Homo sapiens; T24, 24 h treatment, XTT", "description": "as §4, §5, §6"}, "[6]": {"tested_on": "MRC5 (lung normal fibroblast)", "assay": "XTT cell viability assay, MRC5 normal fibroblasts", "type": "cell-based", "conditions": "Homo sapiens, MRC5, 24 h treatment", "description": "as §4, §5, §6"}, "[7]": {"tested_on": "CACO-2 (colorectal adenocarcinoma)", "assay": "XTT cell viability assay, CACO-2", "type": "cell-based, human", "conditions": "Homo sapiens; CACO-2, 24 h treatment, XTT", "description": "as §4, §5, §6"}, "[8]": {"tested_on": "HT29 cell (colorectal adenocarcinoma)", "assay": "XTT cell viability assay, HT29", "type": "cell-based, human", "conditions": "Homo sapiens, HT-29; HT29, 24 h treatment, XTT", "description": "as §4, §5, §6"}, "[9]": {"tested_on": "HCT116 cell (colorectal carcinoma)", "assay": "XTT cell viability assay, HCT116", "type": "cell-based, human", "conditions": "Homo sapiens, HCT-116; HCT116, 24 h treatment, XTT", "description": "as §4, §5, §6"}}}
{"smiles": "OO", "note": "[H2O2, hydrogen peroxide, reference compound]", "values": [{"measurement": "survival (percentage in relation to negative control)", "setting": "[1]", "result": "19.33 ± 2.10", "unit": "%"}, {"measurement": "survival (percentage in relation to negative control)", "setting": "[2]", "result": "63.03 ± 4.12", "unit": "%"}, {"measurement": "survival (percentage in relation to negative control)", "setting": "[3]", "result": "16.27 ± 4.88", "unit": "%"}, {"measurement": "survival (percentage in relation to negative control)", "setting": "[4]", "result": "19.10 ± 4.03", "unit": "%"}]}
{"smiles": "O=C1c2c(O)ccc(O)c2C(=O)c2c(NCCNCCO)ccc(NCCNCCO)c21", "note": "[MXT, mitoxantrone, reference compound]", "values": [{"measurement": "IC50", "setting": "HepG2 (hepatoma)", "result": "3.5 ± 0.39", "unit": "µg/mL"}, {"measurement": "IC50", "setting": "tumor cell lines", "result": "0.61 to 3.5", "unit": "µg/mL"}, {"measurement": "IC50", "setting": "[5]", "result": "0.87 ± 1.59", "unit": "µg/mL"}, {"measurement": "IC50", "setting": "T24 (bladder cancer)", "result": "2.5 ± 0.62", "unit": "µg/mL"}, {"measurement": "IC50", "setting": "[6]", "result": "2.88 ± 1.44", "unit": "µg/mL"}, {"measurement": "IC50", "setting": "[7]", "result": "2.4 ± 1.81", "unit": "µg/mL"}, {"measurement": "IC50", "setting": "[8]", "result": "0.88 ± 2.33", "unit": "µg/mL"}, {"measurement": "IC50", "setting": "[9]", "result": "0.61 ± 0.67", "unit": "µg/mL"}]}
